Test results published in paper PMC7769561, “Antileishmanial activity of synthetic analogs of the naturally occurring quinolone alkaloid N-methyl-8-methoxyflindersin” (PLoS ONE, 2020).
Where “and” joins values, the source holds several entries; their conditions need not be identical. Identical values can stand only once.

Experiments:
[1] = tested on: L. (V.) panamensis intracellular amastigotes; assay: Antileishmanial activity in L. (V.) panamensis intracellular amastigotes in hMDMs; assay type: cell-based, Leishmania (Viannia) panamensis
Description: Next, 100 μL of the suspension was cultured in 96-well plates and infected with L. (V.) panamensis promastigotes (HMOM/COL/87/UA-140) at a 10:1 parasite:cell ratio. We incubated the plates in a 5% CO2 atmosphere for 4 h at 35°C. After incubation, we removed noninternalized parasites by washing the cells with 0.9% NaCl saline solution (Baxter International, Deerfield, IL, USA). The cells were incubated again for 24 h and then treated with each quinoline alkaloid–like compound at a concentration of 100, 10, 1, 0.1, and 0.01 μg/mL in a 5% CO2 atmosphere for 72 h at 36°C. Next, we quantified the percentage of infected cells using fluorescence microscopy, as previously described by Pérez-Cordero in 2011 [23], and quantified the parasite load (amount of intracellular promastigotes and amastigotes per cell) using Giemsa staining and flow cytometry (Cytomics FC 500 MPL; Beckman Coulter, Brea, CA, USA). […] Results were expressed as EC50 using Prism GraphPad software’s probit nonlinear regression analysis (https://www.graphpad.com/scientific-software/prism/).
We used GraphPad Prism nonlinear regression analysis to estimate the percentage mortality with regard to CC50 and EC50. […] The antileishmanial activity with regard to promastigotes was classified as active according to Eq 2: Active=EC50<[LC50/2], (2) where LC50 is the median lethal concentration. We also used GraphPad Prism nonlinear regression analysis to determine the intracellular antileishmanial activity (concentration vs. response), depending on the infection (number of infected cells) and parasite burden (number of parasites/cell) obtained in experimental conditions. Parasite inhibition was estimated using Eq 3, where the plate MFI is 100% parasites: Infectioninhibition(%)=100−[(MIFexposedparasites/MIFunexposedparasites×100)] (3)
The percentage inhibition was used to calculate EC50 by nonlinear regression analysis (fluorescence microscopy), while the parasite burden was evaluated as the percentage of intracellular promastigotes and amastigotes in 100 infected cells (Giemsa staining). […] The selectivity index (SI) was estimated using the following formula: SI=CC50/EC50

[2] = tested on: L. (V.) panamensis-infected hMDMs; assay: Transmission electron microscopy of L. (V.) panamensis-infected hMDMs; assay type: cell-based, human; settings: compound at EC50, 72 h, TEM; for Cell membrane (ultrastructural modification grade): key: -: no alteration/absence; +: low alteration/low presence; ++: alteration/moderate presence; +++: serious disturbance/abundant presence; for LB (lipid bodies, grade): key: -: no alteration/absence; +: low alteration/low presence; ++: alteration/moderate presence; +++: serious disturbance/abundant presence; for Mitochondria (ultrastructural modification grade): key: -: no alteration/absence; +: low alteration/low presence; ++: alteration/moderate presence; +++: serious disturbance/abundant presence; for Nucleus (ultrastructural modification grade): key: -: no alteration/absence; +: low alteration/low presence; ++: alteration/moderate presence; +++: serious disturbance/abundant presence
Source text: This procedure involved including fresh resin and 100–200-nm-wide ultrafine cuts observed by TEM (100X–10.000X) (HITACHI-HU-12; Hitachi, Tokyo, Japan).

[3] = amastigotes in hMDMs, 72 h, ± SD

In the case of “1,2,3,4-tetrahydro(benzo)-3-quinolin-ol [Compound 2]”, the “SI (selectivity index = CC50/EC50)” value ([1]; CC50 hMDMs / EC50 intracellular amastigotes) is reported as 3.64 and > 3, the EC50 [1, 3] is reported as 26 µM and the “EC50 Intracellular amastigotes” value [1, 3] is reported as 5.2 ± 0.9 µg/mL. For the same substance, the Antileishmanial activity class ([1]; intracellular amastigotes, class by EC50) was “high (high if EC50 < 25 μg/mL)”, the “Cell membrane (ultrastructural modification grade)” value [2] was “-” and the “LB (lipid bodies, grade)” value [2] was “+++”. For the same substance, the “Mitochondria (ultrastructural modification grade)” value [2] was “+”, the “Nucleus (ultrastructural modification grade)” value [2] was “-” and the “PV (description)” value [2] was “Multiple parasites per vacuole”. The “PV (parasitophorous vacuoles, grade)” value [2] was “+”, the “Parasites (grade)” value [2] was “++” and the “Vacuoles (ultrastructural modification grade)” value [2] was “-”.
